Laboratory results taken from patent publication US20100314318A1, “HALOGENATED AMIDE BIOCIDAL COMPOUNDS AND METHODS FOR TREATING WATER SYSTEMS AT NEAR NEUTRAL TO HIGH PH” (priority 2009, published 2010).
Where two headings read alike, the source gives them in different places.

Experiments:
[1] = test system: bacteria isolated from Cooling Tower water; experiment: Efficacy in sterile artificial Cooling Tower water (approx. pH 8.5); assay type: cell-based; conditions: 30° C.
[2] = test system: Pseudomonas aeruginosa ATCC 10145; experiment: Bactericidal efficacy in synthetic salts water pH 8.5; assay type: cell-based; conditions: for Dosage required for 3 log10 bacterial reduction (ppm, active): 37° C.
Experimental: A sterile synthetic salts water is prepared and inoculated with Pseudomonas aeruginosa ATCC 10145 at about 10^7 CFU/mL. The synthetic water is prepared to contain (in 1 liter deionized water) the following: CaCl2, 0.2203 g; MgSO4, 0.1847 g; and NaHCO3, 0.2033 g. The final pH of the synthetic cooling water is adjusted to 8.5. Aliquots of the cell suspension are then treated with biocides at selected dosage levels. The same contaminated water sample without biocide is used as control. After incubating at 37° C. for different time intervals, numbers of surviving bacteria are enumerated using a serial dilution method. After incubating for 24 hr, all cell suspensions are reinoculated with Pseudomonas aeruginosa ATCC 10145 at 10^6 CFU/mL. The efficacy results for […]

[3] = test system: Free Legionella; assay type: cell-based, Legionella pneumophila
[4] = test system: amoeba (Acanthamoeba polypohaga) fed Legionella pneumophila (AfLp); assay type: cell-based; conditions: Amoeba fed Legionella
[5] = test system: bacteria isolated from field; experiment: Efficacy in semi-synthetic metal working fluid; assay type: cell-based; conditions: room temperature, MWF

CC1(C)C(=O)N(Cl)C(=O)N1Br [BCDMH, 1-Bromo-3-chloro-5,5-dimethylhydantoin]
Minimum biocide dosage (ppm, active) needed for at least 3 log10 bacterial reduction ([1]; 1 h): 7.0 ppm | Minimum biocide dosage (ppm, active) needed for at least 3 log10 bacterial reduction ([1]; 3 h): 26.0 ppm | Minimum biocide dosage (ppm, active) needed for at least 3 log10 bacterial reduction ([1]; 24 h): >70.0 ppm | Minimum biocide dosage (ppm, active) needed for at least 3 log10 bacterial reduction ([1]; 48 h, reinoculated): >70.0 ppm | Minimum biocide dosage (ppm, active) needed for at least 3 log10 bacterial reduction ([1]; 72 h, reinoculated): >70.0 ppm | Minimum biocide dosage (ppm, active) needed for at least 3 log10 bacterial reduction ([1]; 96 h, reinoculated): >70.0 ppm

N#CC(Br)(Br)C(=O)NCCCO [DBCHA, 2,2-Dibromo-2-cyano-N-(3-hydroxypropyl)acetamide]
Dosage required for 3 log10 bacterial reduction (ppm, active) ([2]; 1 hr, pH 8.5): 4.4 ppm | Dosage required for 3 log10 bacterial reduction (ppm, active) ([2]; 3 hr, pH 8.5): 4.4 ppm | Dosage required for 3 log10 bacterial reduction (ppm, active) ([2]; 24 hr, pH 8.5): 9.9 ppm | Dosage required for 3 log10 bacterial reduction (ppm, active) ([2]; 48 hr, pH 8.5, reinoculated after 24 hr): 33.3 ppm | long term bactericidal efficacy compared with DBNPA ([2]; after 48 hour incubation and rechallenge with P. aeruginosa cells): better long term efficacy than DBNPA

CCCCCCCCCC[N+](C)(C)CCCCCCCCCC.[Cl-] [DDAC, didecyl dimethyl ammonium chloride]
Active concentration (ppm) required for complete kill (6 log reduction) ([3]; 2 hours): 20 ppm | Active concentration (ppm) required for complete kill (6 log reduction) ([3]; 24 hours): 15 ppm | Active concentration (ppm) required for complete kill (6 log reduction) ([4]; 2 hours): 60 ppm | Active concentration (ppm) required for complete kill (6 log reduction) ([4]; 24 hours): 40 ppm

CCCCCCCC[N+](C)(C)CCCCCCCC.[Cl-] [Dioctyl dimethyl ammonium chloride]
Minimum biocide dosage (ppm, active) needed for at least 3 log10 bacterial reduction ([1]; 1 h): 29.0 ppm | Minimum biocide dosage (ppm, active) needed for at least 3 log10 bacterial reduction ([1]; 3 h): 29.0 ppm | Minimum biocide dosage (ppm, active) needed for at least 3 log10 bacterial reduction ([1]; 24 h): 56.0 ppm | Minimum biocide dosage (ppm, active) needed for at least 3 log10 bacterial reduction ([1]; 48 h, reinoculated): 56.0 ppm | Minimum biocide dosage (ppm, active) needed for at least 3 log10 bacterial reduction ([1]; 72 h, reinoculated): 79.0 ppm | Minimum biocide dosage (ppm, active) needed for at least 3 log10 bacterial reduction ([1]; 96 h, reinoculated): >79.0 ppm

O=CCCCC=O [Glutaraldehyde]
Minimum biocide dosage (ppm, active) needed for at least 3 log10 bacterial reduction ([1]; 1 h): 36.0 ppm | Minimum biocide dosage (ppm, active) needed for at least 3 log10 bacterial reduction ([1]; 3 h): 26.0 ppm | Minimum biocide dosage (ppm, active) needed for at least 3 log10 bacterial reduction ([1]; 24 h): 26.0 ppm | Minimum biocide dosage (ppm, active) needed for at least 3 log10 bacterial reduction ([1]; 48 h, reinoculated): 51.0 ppm | Minimum biocide dosage (ppm, active) needed for at least 3 log10 bacterial reduction ([1]; 72 h, reinoculated): 51.0 ppm | Minimum biocide dosage (ppm, active) needed for at least 3 log10 bacterial reduction ([1]; 96 h, reinoculated): 71.0 ppm | Active concentration (ppm) required for complete kill (6 log reduction) ([3]; 2 hours): 10 ppm | Active concentration (ppm) required for complete kill (6 log reduction) ([3]; 24 hours): 5 ppm | Active concentration (ppm) required for complete kill (6 log reduction) ([4]; 2 hours): 20 ppm | Active concentration (ppm) required for complete kill (6 log reduction) ([4]; 24 hours): 15 ppm

CCN1CN(CC)CN(CC)C1 [Triazine, 1,3,5-triethylhexahydro-1,3,5-triazine]
Minimum dosage (ppm, active) required for at least 3 log10 reduction in bacterial counts ([5]; 2 h): 1934 ppm | Minimum dosage (ppm, active) required for at least 3 log10 reduction in bacterial counts ([5]; 4 h): 1487 ppm | Minimum dosage (ppm, active) required for at least 3 log10 reduction in bacterial counts ([5]; 24 h): 1144 ppm | Minimum dosage (ppm, active) required for at least 3 log10 reduction in bacterial counts ([5]; 48 h): 1144 ppm | Minimum dosage (ppm, active) required for at least 3 log10 reduction in bacterial counts ([5]; 72 h): 1144 ppm | Minimum dosage (ppm, active) required for at least 3 log10 reduction in bacterial counts ([5]; 96 h): 1144 ppm
